# Key:
# Assay type in all cases: in vivo
# [1] = Sensory evaluation, sweet taste enhancement of LHe with sodium cyclamate (15-point scale)
# Experimental: In order to verify specificity of the sweet taste enhancement effect of LHe, a sweetener except sucrose was used as a sweet taste reference sample. […] In the experiment, panels well trained in the basic tastes participated, and the presented samples were maintained at room temperature. After having a taste of the reference sample, the mouth was rinsed with water, and then after having a taste of the sample, intensity of each basic taste was evaluated.
# In order to verify specificity of the sweet taste enhancement effect of LHe, a sweetener, except sucrose, was used as a sweet taste reference sample.
# [2] = Sensory evaluation, sweet taste enhancement of LHe with sucrose (15-point scale)
# Experimental: In order to more accurately verify the sweet taste enhancement effect of LHe, 2, 5, 10, and 15% sucrose solutions were used as sweet taste reference samples. An LHe solution (300 μg/mL) and an LHe+5% sucrose solution were presented as samples, and sweet taste intensities thereof were measured by a 15-point scale method. Here, the sweet taste intensities of sweet taste reference samples, 2, 5, 10, and 16% sucrose solutions were presented to be 2, 5, 10, and 15 points, respectively, according to the method of Meilgaard et al.
# In order to more accurately verify the sweet taste enhancement effect of LHe, 2, 5, 10, and 15% sucrose solutions were used as sweet taste reference samples. A 300 μg/mL LHe solution and a 300 μg/mL LHe+5% sucrose solution were presented as samples, and sweet taste intensities thereof were measured by a 15-point scale method. Here, the sweet taste reference samples, 2, 5, 10, and 16% sucrose solutions were respectively presented to be 2, 5, 10, and 15 points according to the method of Meilgaard et al. (1987).
# [3] = Sensory evaluation on Met-Asn peptide
# Experimental: Sensory evaluation was conducted to validate the role of Met-Asn peptide itself, without sugar binding thereto, on the sweetening effect. […] When a Met-Asn peptide+5% sucrose solution was presented as a sample, the sweet taste intensity thereof was 5.00±0.23, which was not shown to have a significant difference from that of the 5% sucrose solution. […] Accordingly, the sweetness effect of the fraction containing the Met-Asn peptide may be due to the sugar structure binding.
compound,measurement,setting,value
"O=S(=O)(O)NC1CCCCC1 [cyclamate, sodium cyclamate]",sweet taste intensity,[1]; 0.056% cyclamate reference sample,2.00±0.00
same,sweet taste intensity,[1]; 0.14% cyclamate reference sample,5.00±0.00
OC[C@H]1O[C@@](CO)(O[C@H]2O[C@H](CO)[C@@H](O)[C@H](O)[C@H]2O)[C@@H](O)[C@@H]1O [sucrose],sweet taste intensity,[2]; 2% sucrose reference sample,2.00±0.00
same,sweet taste intensity,[2]; 5% sucrose reference sample,5.00±0.00
same,sweet taste intensity,[3]; 5% sucrose reference sample,5.00±0.00
Met-Asn [Met-Asn peptide],sweet taste intensity,[3]; Met-Asn peptide + 5% sucrose solution,5.00±0.23
same,sweet taste intensity,"[3]; Met-Asn peptide itself, without sugar binding",0.13±0.04

# — US20140248411A1, “SWEETNESS ENHANCER” (KOREA FOOD RESEARCH INSTITUTE, priority 2011, published 2014)
